Source: US20020013350A1 (priority 1998, published 2002)

Tested on: cabbage black rot bacterium (Xanthomonas campestris)
Assay: Control test on cabbage black rot
Type: in vivo
Settings: 350 ppm, cabbage sprayed four times at intervals of 7 days
Source text: Two days after the second spraying, the cabbage was inoculated with an aqueous suspension of cabbage black rot bacterium (Xanthomonas campestris) by the method of spraying. Two weeks after the final spraying, the cabbage was investigated to calculated the degree of disease occurrence according to the following criterion. In the untreated plot, the degree of disease occurrence was 44.7.
Degree of disease occurrence=Σ(Number of hills at every degree of occurrence)×100÷(Number of hills investigated×3)
From the degree of disease occurrence, controlling degree was calculated according to the following equation. […] [formula]

## Oc1cccc2cccnc12.[Cu] [8-Hydroxyquinoline-copper, 8-Hydroxyquinoline copper]
  Controlling degreee (%): 59%
  Degree of disease occurrence: 18.2
  Percentage of diseased hills (%): 54.5%
